Experimental data from US20030232868A1, “Cyclic carboxylic acids as integrin antagonists” (priority 2000, published 2003).

Experiments:
[1] = tested on: adhesion of Ramos cells to VCAM-1; assay: Adhesion of Ramos cells to immobilized VCAM-1 (domains 1-3) (Ramos—VCAM-1 assay); assay type: cell-based; conditions: Homo sapiens, Ramos, 1 h
Text: (§1) In Vitro Assay: Adhesion of Jurkat/Ramos Cells to Immobilized VCAM-1 (Domains 1-3)
(§2) Preparation of VCAM-1 (Extracellular Domains 1-3)
(§3) Complementary DNA (cDNA) encoding 7 domain form of VCAM-1 (GenBank accession #M60335) was obtained using Rapid-Screen™ cDNA library panels (OriGene Technologies, Inc) at Takara Gene Analysis Center (Shiga, Japan). The primers used were 5′-CCAAGGCAGAGTACGCAAAC-3′ (sense) and 5′-TGGCAGGTATTATTAAGGAG-3′ (antisense). PCR amplification of the 3 domain VCAM-1 cDNA was perform using Pfu DNA polymerase (Stratagene) with the following sets of primers: (U-VCAMd1-3) 5′-CCATATGGTACCTGATCAATTTAAAATCGAGACCACCCCAGAA-3′; (L-VCAMd1-3) 5′-CCATATAGCAATCCTAGGTCCAGGGGAGATCTCAACAGTAAA-3′. PCR cycle was 94° C. for 45 sec. 55° C. for 45 sec, 72° C. for 2 min, repeating 15 cycles. After the purification of the PCR product, the fragment was digested with KpnI-AvrII. The digested fragment was ligated into pBluescript IISK(−) (Strategene), which was linearized by digesting with KpnI-XhoI. The ligation was followed by transformation to a Dam/Dcm methylase-free E. coli strain SCS110 (Strategene) to create the donor plasmid pHH7. To direct VCAM-1 molecule into the insect cell secretory pathway, the VCAM-1 coding sequence was fused to signal peptide sequence of honeybee melittin. The resulting melittin-VCAM fusion was placed in correct orientation to the baculovirus polyhedrin promoter. Baculovirus transfer vector containing first 3-domain form VCAM-1 (pH 10) was constructed by ligation of 0.9 kb fragment from AvrII/Klenow/BclI digests of pH 7 into SalI/Klenow/BamHI digests of pMelBacB Invitrogen). Recombinant baculovirus was generated by using Bac-N-Blue™ Transfection kit (Invitrogen) according to the manufacture's instruction. The recombinant virus was amplified by infection to High-Five™ insect cells for 5-6 days, and virus titer was determined by plaque assay.
(§4) High-Five™ insect cells were pelleted in a 225 ml conical tube by centrifugation at 1000 rpm for 5 min. After discarding the supernatant, the pellet was resuspended in 1.5×10^9 pfu (MOI=5) of high-titer virus solution, followed by incubation for 1.5 hours at room temperature. The cells were pelleted again and washed once in fresh Express Five™ serum free medium. The cells were pelleted again and finally, resuspended in 200 ml of fresh Express Five TM medium, transferred to a 1,000 ml shaker flask, and incubated in a shaker at 27° C., 130 rpm, for 48 hours before the culture supernatant was collected. The purification of 3-domain form of VCAM-1 from the culture supernatant was performed by one-step anion exchange chromatography. Protein concentration was determined by using Coomassie protein assay reagent (Pierce) according to the manufacture's instruction.
(§5) Preparation of VCAM-1 Coated Microtiter Plates
(§6) Recombinant human VCAM-1 (extracellular domains 1-3) was dissolved at 1.0 μg/1 ml in PBS. Each well of the microtiter plates (Nalge Nunc International, Fluoro-nunc Cert, 437958) was coated with 100 μl of substrate or for background control with buffer alone for 15 hours at 4 C. After discarding the substrate solution, the wells were blocked using 150 μl per well of block solution Kirkegaard Perry Laboratories, 50-61-01) for 90 minutes. The plate was washed with wash buffer containing 24 mM Tris-HCl (pH 7.4), 137 mM NaCl, […] and 2 MM MnCl2 just before addition of the assay.
In Vitro Assay using Ramos Cells
Preparation of Fluorescence Labeled Ramos Cells:
(§7) Ramos cells (American Type Culture Collection, Clone CRL-1596) were cultured in RPMI 1640 medium (Nikken Bio Medical Laboratory, CM1101) supplemented with 10% fetal bovine serum (Hyclone, A-1119-L), 100 U/ml penicilin (Gibco BRL, 15140-122) and 100 μg/ml streptomycin (Gibco BRL, 15140-122) in a humidified incubator at 37° C. with 5% CO2. […]

[2] = tested on: adhesion of Jurkat cells to VCAM-1; assay: Adhesion of Jurkat cells to immobilized VCAM-1 (domains 1-3) (Jurkat—VCAM-1 assay); assay type: cell-based, human
Text: as §1, §2, §3, §4, §5, §6
In Vitro Assay using Jurkat Cells
Preparation of Fluorescence Labeled Jurkat Cells:
as §7, with “Jurkat” for “Ramos”, “E6-1, ATCC TIB-152)” for “CRL-1596)”, “RPM” for “RPMI”

| Structure (SMILES) | melting point | IC50 [1] | IC50 ([2]; Homo sapiens, Jurkat, 1 h) | IC50 ([2]; Cell Type Jurkat, adhesion to VCAM-1 coated plates, 1 hour at 37 C, IC50 value ranges) |
| --- | --- | --- | --- | --- |
| COC(=O)c1ccccc1NC(=O)[C@H](CC(C)C)NC(=O)Cc1ccc(NC(=O)Nc2ccccc2C)cc1 [Example 15] | 170 °C |  |  |  |
| COC(=O)c1cccc(NC(=O)[C@H](CC(C)C)NC(=O)Cc2ccc(NC(=O)Nc3ccccc3C)cc2)c1 [Example 16] | 220 °C |  |  |  |
| COC(=O)c1ccc(NC(=O)[C@H](CC(C)C)NC(=O)Cc2ccc(NC(=O)Nc3ccccc3C)cc2)cc1 [Example 17, Methyl 4-([({4-[(2-toluidinocarbonyl)amino]phenyl}acetyl)L-leucin]amino)benzoate] | 250 to 252 °C |  |  |  |
| COC(=O)Cc1ccccc1NC(=O)[C@H](CC(C)C)NC(=O)Cc1ccc(NC(=O)Nc2ccccc2C)cc1 [Example 18] | 218 °C |  |  |  |
| COC(=O)Cc1cccc(NC(=O)[C@H](CC(C)C)NC(=O)Cc2ccc(NC(=O)Nc3ccccc3C)cc2)c1 [Example 19] | 200 °C |  |  |  |
| COC(=O)Cc1ccc(NC(=O)[C@H](CC(C)C)NC(=O)Cc2ccc(NC(=O)Nc3ccccc3C)cc2)cc1 [Example 20] | 222 °C |  |  |  |
| CCOC(=O)c1ccc(NC(=O)[C@H](CC(C)C)NC(=O)Cc2ccc(NC(=O)Nc3ccccc3C)cc2)c(Cl)c1 [Example 21] | 163 to 165 °C |  |  |  |
| CCOC(=O)c1ccc(NC(=O)[C@H](CC(C)C)NC(=O)Cc2ccc(NC(=O)Nc3ccccc3C)cc2)c(OC)c1 [Example 22] | 139 to 141 °C |  |  |  |
| COC(=O)c1ccc(NC(=O)[C@H](CC(C)C)NC(=O)Cc2ccc(NC(=O)Nc3ccccc3C)cc2)cc1Nc1ccccc1 [Example 24] | 205 to 206 °C |  |  |  |
| COC(=O)c1ccc(NC(=O)[C@H](CC(C)C)NC(=O)Cc2ccc(NC(=O)Nc3ccccc3C)cc2)cc1Oc1ccccc1 [Example 25] | 191 to 195 °C |  |  |  |
| COC(=O)c1cc(Cl)c(NC(=O)[C@H](CC(C)C)NC(=O)Cc2ccc(NC(=O)Nc3ccccc3C)cc2)cc1Cl [Example 26] | 204 to 205 °C |  |  |  |
| Cc1ccccc1NC(=O)Nc1ccc(CC(=O)N[C@@H](CC(C)C)C(=O)Nc2ccc(-c3nnn[nH]3)cc2)cc1 [Example 27] | 255 to 257 °C | 2 to 10 µM |  |  |
| CCOC(=O)C(c1ccc(NC(=O)[C@H](CC(C)C)NC(=O)Cc2ccc(NC(=O)Nc3ccccc3C)cc2)cc1)C1CCCC1 (some centres unmarked) [Example 30] | 186 to 189 °C |  |  |  |
| CCOC(=O)Cc1csc(N(C)C(=O)[C@H](CC(C)C)NC(=O)Cc2ccc(NC(=O)Nc3ccccc3C)cc2)n1 [Example 33] | 125 to 130 °C |  |  |  |
| Cc1ccccc1NC(=O)Nc1ccc(CC(=O)N[C@@H](CCCCNC(=O)OCc2ccccc2)C(=O)Nc2ccc(C(=O)OCc3ccccc3)cc2)cc1 [Example 35] | 188 to 189 °C |  |  |  |
| COCCCN(CC(=O)Nc1ccc(C(=O)OC)cc1)C(=O)Cc1ccc(NC(=O)Nc2ccccc2C)cc1 [Example 36] | 197 to 198 °C |  |  |  |
| Cc1ccccc1NC(=O)Nc1ccc(CC(=O)N[C@@H](CC(C)C)C(=O)Nc2ccccc2C(=O)O)cc1 [Example 39] | 190 °C |  | > 10 µM |  |
| Cc1ccccc1NC(=O)Nc1ccc(CC(=O)N[C@@H](CC(C)C)C(=O)Nc2cccc(C(=O)O)c2)cc1 [Example 40] | 220 °C |  | > 10 µM |  |
| Cc1ccccc1NC(=O)Nc1ccc(CC(=O)N[C@@H](CC(C)C)C(=O)Nc2ccc(C(=O)O)cc2)cc1 [Example 41] | 219 to 223 °C |  | < 0.5 µM |  |

| Structure (SMILES) | melting point | IC50 [1] | IC50 ([2]; Homo sapiens, Jurkat, 1 h) | IC50 ([2]; Cell Type Jurkat, adhesion to VCAM-1 coated plates, 1 hour at 37 C, IC50 value ranges) |
| --- | --- | --- | --- | --- |
| Cc1ccccc1NC(=O)Nc1ccc(CC(=O)N[C@@H](CC(C)C)C(=O)Nc2ccccc2CC(=O)O)cc1 [Example 42] | 186 to 190 °C |  | > 10 µM |  |
| Cc1ccccc1NC(=O)Nc1ccc(CC(=O)N[C@@H](CC(C)C)C(=O)Nc2cccc(CC(=O)O)c2)cc1 [Example 43] | 178 to 181 °C |  | 0.5 to 2 µM |  |
| Cc1ccccc1NC(=O)Nc1ccc(CC(=O)N[C@@H](CC(C)C)C(=O)Nc2ccc(CC(=O)O)cc2)cc1 [Example 44] | 206 °C |  | 2 to 10 µM |  |
| Cc1ccccc1NC(=O)Nc1ccc(CC(=O)N[C@@H](CC(C)C)C(=O)Nc2ccc(C(=O)O)cc2Cl)cc1 [Example 45] | 154 to 158 °C |  |  | A-B |
| COc1cc(C(=O)O)ccc1NC(=O)[C@H](CC(C)C)NC(=O)Cc1ccc(NC(=O)Nc2ccccc2C)cc1 [Example 46] | 138 to 142 °C | > 10 µM |  |  |
| Cc1ccccc1NC(=O)Nc1ccc(CC(=O)N[C@@H](CC(C)C)C(=O)Nc2ccc(C(=O)O)c(Cl)c2)cc1 [Example 47] | 178 to 180 °C | < 0.5 µM |  |  |
| Cc1ccccc1NC(=O)Nc1ccc(CC(=O)N[C@@H](CC(C)C)C(=O)Nc2ccc(C(=O)O)c(Nc3ccccc3)c2)cc1 [Example 48] | 164 to 169 °C | < 0.5 µM |  |  |
| Cc1ccccc1NC(=O)Nc1ccc(CC(=O)N[C@@H](CC(C)C)C(=O)Nc2ccc(C(=O)O)c(Oc3ccccc3)c2)cc1 [Example 49] | 158 to 160 °C | < 0.5 µM |  |  |
| Cc1ccccc1NC(=O)Nc1ccc(CC(=O)N[C@@H](CC(C)C)C(=O)Nc2cc(Cl)c(C(=O)O)cc2Cl)cc1 [Example 50] | 185 to 188 °C | 2 to 10 µM |  |  |
| Cc1ccccc1NC(=O)Nc1ccc(CC(=O)N[C@@H](CC(C)C)C(=O)Nc2cc(C(=O)O)cc([N+](=O)[O-])c2)cc1 [Example 51] | 188 to 190 °C | 2 to 10 µM |  |  |
| Cc1ccccc1NC(=O)Nc1ccc(CC(=O)N[C@@H](CC(C)C)C(=O)N2CCCc3cc(C(=O)O)ccc32)cc1 [Example 52] |  | 2 to 10 µM |  |  |
| Cc1ccccc1NC(=O)Nc1ccc(CC(=O)N[C@@H](CC(C)C)C(=O)Nc2ccc(C(C(=O)O)C3CCCC3)cc2)cc1 (some centres unmarked) [Example 53] | 206 to 208 °C |  | 2 to 10 µM |  |
| Cc1ccccc1NC(=O)Nc1ccc(CC(=O)N[C@@H](CC(C)C)C(=O)Nc2nc(CC(=O)O)cs2)cc1 [Example 54] | 178 to 180 °C |  | 2 to 10 µM |  |
| Cc1ccccc1NC(=O)Nc1ccc(CC(=O)N[C@@H](CC(C)C)C(=O)Nc2nnc(CC(=O)O)s2)cc1 [Example 55] | 187 to 189 °C |  | 2 to 10 µM |  |
| Cc1ccccc1NC(=O)Nc1ccc(CC(=O)N[C@@H](CC(C)C)C(=O)N(C)c2nc(CC(=O)O)cs2)cc1 [Example 56] | 172 to 174 °C | > 10 µM |  |  |
| Cc1ccccc1NC(=O)Nc1ccc(CC(=O)N[C@@H](CC(C)C)C(=O)Nc2ccc3[nH]c(C(=O)O)cc3c2)cc1 [Example 57] |  |  | > 10 µM |  |
| Cc1ccccc1NC(=O)Nc1ccc(CC(=O)N[C@@H](CC(C)C)C(=O)NC2CCC(C(=O)O)CC2)cc1 (some centres unmarked) [Example 60] | 175 °C (dec.) |  | 2 to 10 µM |  |
| Cc1ccccc1NC(=O)Nc1ccc(CC(=O)N[C@@H](CC(C)C)C(=O)NC2CCCCC2C(=O)O)cc1 (some centres unmarked) [Example 61] |  | 2 to 10 µM |  |  |
